Patent US10294202B2, “Pyrrolidinones as herbicides” (FMC Corporation, priority 2013, dated 2019)

Tests used:
barnyardgrass [1] = test: Test A pre-/postemergence herbicide test; format: in vivo, Echinochloa crus-galli
Procedure, shortened: (§1)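 Scoring was visual, relative to untreated controls, on a 0–100 scale after about 10 greenhouse days. Preemergence treatment used a directed soil spray over seeded loam/sand; postemergence treatment targeted one- to two-leaf plants of 2–10 cm.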

kochia = test: Test A pre-/postemergence herbicide test; format: in vivo, Kochia scoparia; conditions: for Plant response rating, Kochia: 0 to 100 scale
Procedure, shortened: as §1

ragweed = test: Test A pre-/postemergence herbicide test; format: in vivo, Ambrosia elatior; conditions: for Plant response rating, Ragweed: 0 to 100 scale
Procedure, shortened: as §1

ryegrass, Italian = test: Test A pre-/postemergence herbicide test; format: in vivo, Lolium multiflorum; conditions: for Plant response rating, Ryegrass, Italian: 0 to 100 scale
Procedure, shortened: as §1

giant foxtail = test: Test A pre-/postemergence herbicide test; format: in vivo, Setaria faberii; conditions: for Plant response rating, Foxtail, Giant: 0 to 100 scale
Procedure, shortened: as §1

pigweed = test: Test A pre-/postemergence herbicide test; format: in vivo, Amaranthus retroflexus; conditions: for Plant response rating, Pigweed: 0 to 100 scale
Procedure, shortened: as §1

wheat = test: Test A pre-/postemergence herbicide test; format: in vivo, Triticum aestivum; conditions: Postemergence; for Plant response rating, Wheat: 125 g ai/ha, 0 to 100 scale, 0 no effect, 100 complete control; for Wheat plant response rating (0 to 100 scale, 0 is no effect, 100 is complete control): 500 g ai/ha
Procedure, shortened: as §1

corn = test: Test A pre-/postemergence herbicide test; format: in vivo, Zea mays; conditions: Postemergence
Procedure, shortened: as §1

blackgrass = test: Test A postemergence herbicide test; format: in vivo, Alopecurus myosuroides
Procedure, shortened: (§2)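 Plants at the one- to two-leaf stage, 2–10 cm tall, grown in loam/sand pots, received postemergence sprays of the test chemicals. After about 10 days in the greenhouse, injury was scored visually against untreated controls on a 0–100 scale (0 none, 100 complete control).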

galium = test: Test A postemergence herbicide test; format: in vivo, Galium aparine; conditions: for Plant response rating, Galium: 125 g ai/ha, 0 to 100 scale, 0 no effect, 100 complete control; for Galium plant response rating (0 to 100 scale, 0 is no effect, 100 is complete control): 500 g ai/ha
Procedure, shortened: as §2

rice = test: Test B flooded paddy test; format: in vivo, Oryza sativa; conditions: 500 g ai/ha, Flood; scale of 0 to 100 where 0 is no effect and 100 is complete control
Procedure, shortened: (§3)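 In-water application to pots flooded 3 cm deep, plants at 2-leaf stage. Held in greenhouse 13–15 days at constant flood depth. Scored 0–100 by eye against controls.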

sedge, umbrella = test: Test B flooded paddy test; format: in vivo, Cyperus difformis; conditions: 500 g ai/ha, Flood; scale of 0 to 100 where 0 is no effect and 100 is complete control
Procedure, shortened: as §3

ducksalad = test: Test B flooded paddy test; format: in vivo, Heteranthera limosa; conditions: 500 g ai/ha, Flood; scale of 0 to 100 where 0 is no effect and 100 is complete control
Procedure, shortened: as §3

barnyardgrass [2] = test: Test B flooded paddy test; format: in vivo, Echinochloa crus-galli; conditions: 500 g ai/ha, Flood; scale of 0 to 100 where 0 is no effect and 100 is complete control
Procedure, shortened: as §3

[3] = 125 g ai/ha, visual rating, 0 to 100 scale, 0 no effect, 100 complete control, approximately 10 days, preemergence
[4] = Postemergence, 125 g ai/ha, 0 to 100 scale, 0 no effect, 100 complete control
[5] = Postemergence, 500 g ai/ha, 0 to 100 scale (0 no effect, 100 complete control)
[6] = preemergence, 500 g ai/ha, 0 to 100 scale (0 no effect, 100 complete control)
[7] = 125 g ai/ha, visual rating, 0 no effect, 100 complete control, approximately 10 days, preemergence
[8] = Postemergence, 125 g ai/ha, 0 no effect, 100 complete control
[9] = 125 g ai/ha, 0 to 100 scale, 0 no effect, 100 complete control
[10] = 500 g ai/ha, 0 to 100 scale (0 no effect, 100 complete control)

| Compound | Plant response rating, Barnyardgrass (barnyardgrass [1]; [3]) | Plant response rating, Barnyardgrass (barnyardgrass [1]; [4]) | Plant response rating, Barnyardgrass (barnyardgrass [1]; [6]) | Plant response rating, Kochia (kochia; [7]) | Plant response rating, Kochia (kochia; [8]) | Kochia plant response rating (0 to 100 scale, 0 is no effect, 100 is complete control) (kochia; Postemergence, 500 g ai/ha) | Plant response rating, Kochia (kochia; preemergence, 500 g ai/ha) | Plant response rating, Ragweed (ragweed; [7]) | Plant response rating, Ragweed (ragweed; [8]) | Ragweed plant response rating (0 to 100 scale, 0 is no effect, 100 is complete control) (ragweed; Postemergence, 500 g ai/ha) | Plant response rating, Ragweed (ragweed; preemergence, 500 g ai/ha) | Plant response rating, Ryegrass, Italian (ryegrass, Italian; [7]) | Plant response rating, Ryegrass, Italian (ryegrass, Italian; [8]) | Ryegrass, Italian plant response rating (0 to 100 scale, 0 is no effect, 100 is complete control) (ryegrass, Italian; Postemergence, 500 g ai/ha) | Plant response rating, Ryegrass, Italian (ryegrass, Italian; preemergence, 500 g ai/ha) | Plant response rating, Foxtail, Giant (giant foxtail; [7]) | Plant response rating, Foxtail, Giant (giant foxtail; [8]) | Foxtail, Giant plant response rating (0 to 100 scale, 0 is no effect, 100 is complete control) (giant foxtail; Postemergence, 500 g ai/ha) | Plant response rating, Foxtail, Giant (giant foxtail; preemergence, 500 g ai/ha) | Plant response rating, Pigweed (pigweed; [7]) | further results |
| --- | --- | --- | --- | --- | --- | --- | --- | --- | --- | --- | --- | --- | --- | --- | --- | --- | --- | --- | --- | --- | --- |
| O=C1NCC(c2cccc(OC(F)(F)C(F)F)c2)C1C(=O)Nc1ccccc1F (racemic) [Compound 121] | 80 | 70 | 90 | 60 | 50 | 60 | 70 | 70 | 0 | 30 | 70 | 0 | 40 | 50 | 0 | 90 | 80 | 90 | 90 | 50 | Plant response rating, Barnyardgrass (barnyardgrass [1]; [5]): 80; Plant response rating, Pigweed (pigweed; [8]): 0; Pigweed plant response rating (0 to 100 scale, 0 is no effect, 100 is complete control) (pigweed; Postemergence, 500 g ai/ha): 0; Plant response rating, Pigweed (pigweed; preemergence, 500 g ai/ha): 70; Plant response rating, Wheat (wheat): 50; Wheat plant response rating (0 to 100 scale, 0 is no effect, 100 is complete control) (wheat): 60; Plant response rating, Corn (corn; [9]): 50; Plant response rating, Corn (corn; [10]): 70; Plant response rating, Blackgrass (blackgrass; [9]): 60; Plant response rating, Blackgrass (blackgrass; [10]): 70; Plant response rating, Galium (galium): 60; Galium plant response rating (0 to 100 scale, 0 is no effect, 100 is complete control) (galium): 70; Plant response rating, Rice (rice): 35; Plant response rating, Sedge, Umbrella (sedge, umbrella): 0; Plant response rating, Ducksalad (ducksalad): 100; Plant response rating, Barnyardgrass (barnyardgrass [2]): 70 |
| O=C1NCC(c2cccc(OC(F)(F)C(F)F)c2)C1C(=O)Nc1ccc(F)cc1F (racemic) [Compound 122] | 80 | 70 | 90 | 60 | 70 | 70 | 70 | 0 | 30 | 70 | 60 | 0 | 0 | 40 | 0 | 90 | 80 | 80 | 90 | 50 | Plant response rating, Barnyardgrass (barnyardgrass [1]; [5]): 80; Plant response rating, Pigweed (pigweed; [8]): 60; Pigweed plant response rating (0 to 100 scale, 0 is no effect, 100 is complete control) (pigweed; Postemergence, 500 g ai/ha): 80; Plant response rating, Pigweed (pigweed; preemergence, 500 g ai/ha): 80; Plant response rating, Wheat (wheat): 50; Wheat plant response rating (0 to 100 scale, 0 is no effect, 100 is complete control) (wheat): 60; Plant response rating, Corn (corn; [9]): 40; Plant response rating, Corn (corn; [10]): 60; Plant response rating, Blackgrass (blackgrass; [9]): 50; Plant response rating, Blackgrass (blackgrass; [10]): 70; Plant response rating, Galium (galium): 70; Galium plant response rating (0 to 100 scale, 0 is no effect, 100 is complete control) (galium): 80; Plant response rating, Rice (rice): 15; Plant response rating, Sedge, Umbrella (sedge, umbrella): 0; Plant response rating, Ducksalad (ducksalad): 100; Plant response rating, Barnyardgrass (barnyardgrass [2]): 65 |
| O=C1NCC(c2cccc(OC(F)(F)C(F)F)c2)C1C(=O)Nc1ccc(F)c(F)c1F (racemic) [Compound 124] | 70 | 60 | 80 | 60 | 70 | 80 | 70 | 40 | 40 | 70 | 50 | 0 | 30 | 50 | 40 | 80 | 80 | 90 | 90 | 70 | Plant response rating, Barnyardgrass (barnyardgrass [1]; [5]): 70; Plant response rating, Pigweed (pigweed; [8]): 60; Pigweed plant response rating (0 to 100 scale, 0 is no effect, 100 is complete control) (pigweed; Postemergence, 500 g ai/ha): 70; Plant response rating, Pigweed (pigweed; preemergence, 500 g ai/ha): 80; Plant response rating, Wheat (wheat): 30; Wheat plant response rating (0 to 100 scale, 0 is no effect, 100 is complete control) (wheat): 50; Plant response rating, Corn (corn; [9]): 0; Plant response rating, Corn (corn; [10]): 50; Plant response rating, Blackgrass (blackgrass; [9]): 40; Plant response rating, Blackgrass (blackgrass; [10]): 70; Plant response rating, Galium (galium): 70; Galium plant response rating (0 to 100 scale, 0 is no effect, 100 is complete control) (galium): 80; Plant response rating, Rice (rice): 0; Plant response rating, Sedge, Umbrella (sedge, umbrella): 0; Plant response rating, Ducksalad (ducksalad): 100; Plant response rating, Barnyardgrass (barnyardgrass [2]): 40 |
| COc1cc(C2CNC(=O)C2C(=O)Nc2ccccc2Cl)ccc1F (racemic) [Compound 133] | 20 | 30 | 30 | 0 | 0 | 0 | 0 | 0 | 0 | 0 | 0 | 0 | 0 | 0 | 0 | 30 | 20 | 50 | 90 | 0 | Barnyardgrass plant response rating (0 to 100 scale, 0 is no effect, 100 is complete control) (barnyardgrass [1]; Postemergence, 500 g ai/ha): 80; Plant response rating, Pigweed (pigweed; [8]): 0; Pigweed plant response rating (0 to 100 scale, 0 is no effect, 100 is complete control) (pigweed; Postemergence, 500 g ai/ha): 0; Plant response rating, Pigweed (pigweed; preemergence, 500 g ai/ha): 0; Plant response rating, Wheat (wheat): 0; Wheat plant response rating (0 to 100 scale, 0 is no effect, 100 is complete control) (wheat): 0; Plant response rating, Corn (corn; [9]): 0; Corn plant response rating (0 to 100 scale, 0 is no effect, 100 is complete control) (corn; 500 g ai/ha): 0; Plant response rating, Blackgrass (blackgrass; [9]): 0; Blackgrass plant response rating (0 to 100 scale, 0 is no effect, 100 is complete control) (blackgrass; 500 g ai/ha): 0; Plant response rating, Galium (galium): 0; Galium plant response rating (0 to 100 scale, 0 is no effect, 100 is complete control) (galium): 0; Plant response rating, Rice (rice): 0; Plant response rating, Sedge, Umbrella (sedge, umbrella): 0; Plant response rating, Ducksalad (ducksalad): 60; Plant response rating, Barnyardgrass (barnyardgrass [2]): 30 |
| Cc1cc(C2CNC(=O)C2C(=O)Nc2ccccc2Cl)ccc1F (racemic) [Compound 143] | 60 | 50 | 90 | 30 | 0 | 0 | 30 | 0 | 0 | 0 | 0 | 0 | 0 | 0 | 0 | 30 | 20 | 30 | 90 | 0 | Barnyardgrass plant response rating (0 to 100 scale, 0 is no effect, 100 is complete control) (barnyardgrass [1]; Postemergence, 500 g ai/ha): 90; Plant response rating, Pigweed (pigweed; [8]): 0; Pigweed plant response rating (0 to 100 scale, 0 is no effect, 100 is complete control) (pigweed; Postemergence, 500 g ai/ha): 0; Plant response rating, Pigweed (pigweed; preemergence, 500 g ai/ha): 0; Plant response rating, Wheat (wheat): 0; Wheat plant response rating (0 to 100 scale, 0 is no effect, 100 is complete control) (wheat): 0; Plant response rating, Corn (corn; [9]): 0; Corn plant response rating (0 to 100 scale, 0 is no effect, 100 is complete control) (corn; 500 g ai/ha): 0; Plant response rating, Blackgrass (blackgrass; [9]): 0; Blackgrass plant response rating (0 to 100 scale, 0 is no effect, 100 is complete control) (blackgrass; 500 g ai/ha): 0; Plant response rating, Galium (galium): 0; Galium plant response rating (0 to 100 scale, 0 is no effect, 100 is complete control) (galium): 40; Plant response rating, Rice (rice): 0; Plant response rating, Sedge, Umbrella (sedge, umbrella): 0; Plant response rating, Ducksalad (ducksalad): 100; Plant response rating, Barnyardgrass (barnyardgrass [2]): 35 |
